Results taken from patent EP0171342A1, “Substituted 2-(1-amino-akylidenyl)1,3-indane diones, process for their preparation and their therapeutical use” (priority 1984, dated 1986).
Converted amounts (≈) assume the structure as drawn. Like-named read-outs stand apart in the source and are kept apart here.

What was measured:
souris [1] = assay: Anticonvulsant activity: maximal electroshock convulsions in mice; format: in vivo; settings: mouse, oral, 100 mg/kg, one hour after administration
Source text: L'activité anticonvulsivante est appréciée dans le test de la prévention des convulsions induites par des électrochocs d'intensité maximale.

souris [2] = assay: Antidepressant activity: inhibition of reserpine-induced ptosis in mice; format: in vivo; settings: mouse, oral 50 mg/kg 90 min before reserpine 5 mg/kg i.p.; index 0 (maximum ptosis) to 6 (no ptosis)
Protocol: L'activité antidépressive a été déterminée dans le test de potentialisation de la toxicité de la yohimbine et dans le test de l'inhibition du ptosis induit par la réserpine.
On injecte par voie sous cutanée à des souris, lh avant l'administration par voie orale du produit à tester, une dose non léthale de yohimbine soit 15 mg/kg. Le COR3760 administré à la dose de 100 mg/kg entraine 80% de mortalité dans ces conditions. Des souris reçoivent par voie orale le produit à tester 90 mn avant l'injection par voie intrapéritonéale de 5 mg/kg de réserpine solubilisée. On cote le ptosis selon un index allant de 0 à 6, la cote 0 correspondant à un ptosis maximum et la cote 6 à l'absence de ptosis. Les COR3760 et COR4011 conduisent dans les conditions de l'expérience à un ptosis coté à 4 pour une dose de respectivement 200 et 50 mg/kg.

[3] = tested on: oreillette gauche de cobaye; assay: Calcium antagonist activity: electrically stimulated guinea pig left atrium; settings: 150 beats/min, low-calcium (0,6 mM) Tyrode solution; read-out: concentration qui inhibe de 50% l'augmentation de la force de contraction induite par l'addition de 0,6 mM de calcium
Protocol: L'activité anticalcique a été déterminée in vitro sur deux modèles expérimentaux.
Sur oreillette gauche de cobaye stimulée électriquement à 150 battements/mn dans une solution de Tyrode pauvre en calcium (0,6 mM), les COR3789, COR3792, COR4009, COR4010 et COR4011 employés respectivement à 25, 100, 50, 10 et 25 microg/ml inhibent de 50% l'augmentation de la force de contraction induite par l'addition de 0,6 mM de calcium.

[4] = tested on: rat Wistar soumis à une surcharge saline; assay: Diuretic activity in selected Wistar rats given a saline overload (modified Wiebelhaus test); format: in vivo
Protocol: L'activité diurétique des produits selon l'invention a été également déterminée chez le rat Wistar soumis à une surcharge saline selon une modification du test décrit par Wiebelhaus et coll., Fed. Proc., 1960, 19, 364, en procédant à une sélection des animaux. A la dose de 20 mg/kg, les COR4003, COR4008, COR4009, COR4010, COR4011, COR4012, COR4014, COR4016, COR4021, COR4025 augmentent l'excrétion urinaire volumétrique mesurée au bout de 6 heures de respectivement 56, 54, 65, 95, 73, 54, 33, 40, 99 et 92 %. L'excrétion urinaire du sodium augmente de respectivement 56, 24, 42, 59, 43, 33, 29, 43, 31, 83, 26, 99, 40 % toujours à cette dose pour les COR4003, COR4008, COR4009, COR4010, COR4011, COR4012, COR4014, COR4016, COR4017, COR4021, COR4023, COR4025 et COR4026. Le rapport Na/K demeure la plupart du temps inchangé. Testé dans les mêmes conditions le furosémide, administré à la dose de 20 mg/kg entraine 63% d'augmentation de l'excrétion urinaire volumétrique et 53% d'augmentation de l'excrétion urinaire du sodium.

[5] = tested on: strips de veines mésentériques porte de rats normotendus; assay: Calcium antagonist activity: spontaneous contractions of rat portal mesenteric vein strips; settings: 10 microg/ml
souris [6] = assay: Acute toxicity (mortality, LD50) in mice; format: in vivo; settings: mouse
[7] = molecular target: oreillettes droites de cobaye (Cavia porcellus, UniProt P47747); assay: Anti-H2 activity: histamine-induced chronotropic effect on unstimulated guinea pig right atria
iléon de cobaye = assay: Spasmolytic activity: guinea pig ileum contractions induced by transmural stimulation; settings: 2 microg/ml, oxygenated Krebs solution at 32°C; for inhibition at 2 µg/mL: read-out: inhibition de ces contractions
Protocol: L'activité spasmolytique a été déterminée in vitro par la mesure de l'effet du produit à tester sur les contractions de l'iléon de cobaye induites par stimulation transmurale dans une solution de Krebs oxygénée à 32°C. Le COR4010 et le COR3773 utilisés à la concentration de 2 microg/ml entrainent 50% d'inhibition de ces contractions.

[8] = tested on: segments d'iléon de cobaye isolés; assay: Anticholinergic activity: acetylcholine-induced contractions of isolated guinea pig ileum; settings: Cavia porcellus; contractions induced by 0,1 microg/ml acetylcholine; read-out: concentration qui inhibe ces contractions de 80%
Source text: L'activité anticholinergique a été appréciée par la mesure des contractions induites par 0,1 microg/ml d'acétylcholine sur des segments d'iléon de cobaye isolés. Les COR3760, COR3789, COR3792, COR4003, COR4008, COR4010, COR4014 utilisés respectivement aux concentrations de 50, 25, 25, 50, 25, 10, 25 microg/ml inhibent ces contractions de 80%.

[9] = tested on: poumon de cobaye isolé perfusé; assay: Bronchodilator activity: isolated perfused guinea pig lung contracted by methacholine; settings: flow of Tyrode solution, lung contracted by 0,05 microg/ml methacholine; read-out: concentration qui augmente ce débit de 50%
Source text: L'activité bronchodilatatrice a été déterminée in vitro par la mesure du débit d'une solution de Tyrode à travers un poumon de cobaye isolé perfusé, contracté par l'addition au fluide de perfusion de 0,05 microg/ml de méthacholine. Les COR3760, COR3789, COR3792, COR4003, COR4008, COR4010 et COR4014 utilisés respectivement aux concentrations de 50, 50, 100, 10, 50, 50 et 10 microg/ml augmentent ce débit de 50%. L'aminophylline entraine cette même activité à la concentration de 100 microg/ml.

[10] = tested on: oedème induit par l'injection intraplantaire de carragénine chez le rat; assay: Anti-inflammatory activity: carrageenan paw oedema in rats; format: in vivo; settings: oral 1 h before carrageenan, measured 3 h after
Protocol: L'activité antiinflammatoire a été déterminée chez le rat par la mesure de l'inhibition de l'oedème induit par l'injection intraplantaire de 0,1 ml d'une suspension à 1% de carragénine chez le rat. Les produits à tester sont administrés par voie orale lh avant l'injection de carragénine et la mesure est réalisée 3h après cette injection. Les COR3789, COR3792, COR4003, COR4008 et COR4010 administrés à 10b mg/kg entrainent respectivement 43, 42, 41, 38 et 39% d'inhibition. Administré à 200 mg/kg, le COR3773 entraine 53% d'inhibition. L'aspirine administrée dans les mêmes conditions à 150 mg/kg entraine 40% d'inhibition de l'oedème.

[11] = tested on: rat soumis à une surcharge hydrique; assay: Diuretic activity in rats given a water overload, oral; format: in vivo; settings: rat, water overload, oral; for response vs control in vivo at 20 mg/kg: read-out: facteur multipliant l'excrétion urinaire du sodium
Protocol: L'activité diurétique a été déterminée sur plusieurs modèles expérimentaux. Chez le rat soumis à une surcharge hydrique, administrés par voie orale à la dose de 20 mg/kg, le COR3760, le COR3789, le COR3792, le COR4002, le COR4003, le COR4009, le COR4010, le COR4012 et le COR4014 multiplient l'excrétion urinaire du sodium par respectivement un facteur 2,9 - 3,1 - 5,9 - 2,6 - 7,2 - 3,5 - 3,8 - 2,9 - 2,4. Administrés à la dose de 10 mg/kg, dans les mêmes conditions, les COR3760, COR3789, COR3792, COR4003 et COR4010 multiplient l'excrétion sodique par respectivement 2,3 - 2,9 - 2,8 - 2,4 et 2,5. La spironolactone multiplie quant à elle l'excrétion sodique d'un facteur 3,6 à la dose de 20 mg/kg. Administré à la dose de 5 mg/kg dans les mêmes conditions, le COR3792 multiplie l'excrétion sodique par 3,3. Administré par voie orale chez le rat ou la souris soumis à une surcharge saline, le COR3760 augmente l'excrétion urinaire volumétrique mesurée à la sixième heure de respectivement 49, 119 et 134% chez la souris et 28, 84 et 116% chez le rat après administration de 10, 20, et 40 mg/kg. Le COR3760 a été administré par voie orale au rat soumis à une surcharge hydrique et l'excrétion urinaire volumétrique, le sodium et le potassium excrétés ont été mesurés sur une période de 6 heures; ces paramètres ont varié de respectivement +17%, +102%, +165% à 10 mg/kg, +19%, +147%, +180% à 20 mg/kg et +36%, +415% et +239% à 40 mg/kg; le rapport Na/K passe de 0,56 chez les animaux témoins à 0,4 à 10 mg/kg, 0,49 à 20 mg/kg et 0, 8 à 40 mg/ kg. Au cours d'une seconde expérimentation, le COR3760 a entrainé des variations de +19%, +157%, +70% à 40 mg/kg, +19%, +319%, +90% à 60 mg/kg et +29%, +472% et +77% à 80 mg/kg; le rapport Na/K passe de 0,59 chez les animaux témoins à 0,88 à 40, 1,15 à 60 et 1,88 à 80 mg/kg.

souris [12] = assay: Anticonvulsant activity: bicuculline-induced convulsions in mice; format: in vivo; settings: mouse, i.p., 100 mg/kg
Protocol: L'activité anticonvulsivante est également déterminée dans le test des inhibitions des convulsions induites par la bicuculline. Des souris reçoivent par voie intrapéritonéale le produit à tester, puis 30 mn et 5 heures plus tard, deux injections séparées de 0,5 mg de bicuculline. […] Les résultats de ce test sont le reflet d'une activité gabaergique directe.

[13] = 6 h, read-out: augmentation de l'excrétion urinaire volumétrique mesurée au bout de 6 heures
[14] = read-out: augmentation de l'excrétion urinaire du sodium

oreillettes droites de cobaye, sequence (P47747 whole entry): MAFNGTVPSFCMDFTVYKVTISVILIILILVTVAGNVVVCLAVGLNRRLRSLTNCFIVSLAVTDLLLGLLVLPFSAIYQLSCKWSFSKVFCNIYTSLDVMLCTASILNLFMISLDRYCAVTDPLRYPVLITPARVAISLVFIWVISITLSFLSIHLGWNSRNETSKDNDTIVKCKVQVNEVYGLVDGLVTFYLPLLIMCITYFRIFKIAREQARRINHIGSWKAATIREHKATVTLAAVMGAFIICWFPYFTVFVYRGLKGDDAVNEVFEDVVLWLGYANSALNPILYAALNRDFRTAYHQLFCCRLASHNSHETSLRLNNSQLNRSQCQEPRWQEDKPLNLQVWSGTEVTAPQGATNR

SMILES	IC50 [3] [µg/mL]	inhibition de l'augmentation, induite par le calcium, des contractions spontanées [5]	mortalité (souris [6]; intraperitoneal, 200 mg/kg)	mortalité (souris [6]; oral, 300 mg/kg)	IC80 [8] [µg/mL]	EC50 [9] [µg/mL]	inhibition de l'oedème ([10]; dose 10b mg/kg [sic]) [%]	facteur multipliant l'excrétion sodique ([11]; 10 mg/kg)	response vs control in vivo at 20 mg/kg [11] [%]	other results
CCCC(C)(COC(N)=O)COC(N)=O [méprobamate, reference compound]										prévention des convulsions induites par des électrochocs d'intensité maximale (souris [1]): on n'observe plus de convulsions
CC(NCC1CC1)=C1C(=O)c2ccccc2C1=O [COR4011, (Cyclopropylméthylamino-1 éthylidényl)-2 indanedione-1,3]	25 (≈ 104 µM)	inhibent l'augmentation	aucune mortalité	aucune mortalité						ptosis coté (souris [2]): 4; change in vivo at 20 mg/kg [4, 13]: 73%; change in vivo at 20 mg/kg [4, 14]: 43%; effet chronotrope négatif intrinsèque ([7]; at the concentration inhibiting the histamine effect by 50 % (COR4003 100, COR4011 50 microg/ml)): ne présentant pas d'effet chronotrope négatif intrinsèque; IC50 ([7]; read-out: concentration qui inhibe de 50 % cet effet chronotrope, chronotropic effect induced by 5 microg/ml histamine): 207 µM
CCCCNC(C)=C1C(=O)c2ccccc2C1=O [COR4010, (Butylamino-1 éthylidényl)-2 indanedione-1,3]	10 (≈ 41.1 µM)	inhibent l'augmentation	aucune mortalité	aucune mortalité	10 (≈ 41.1 µM)	50 (≈ 206 µM)	39	2,5	380	inhibition at 2 µg/mL (iléon de cobaye): 50%; change in vivo at 20 mg/kg [4, 13]: 95%; change in vivo at 20 mg/kg [4, 14]: 59%
CCNC(C)=C1C(=O)c2ccccc2C1=O [COR3789, (Ethylamino-1 éthylidène)-2 indanedione-1,3]	25 (≈ 116 µM)	inhibent l'augmentation	aucune mortalité	aucune mortalité	25 (≈ 116 µM)	50 (≈ 232 µM)	43	2,9	310	
CNC(C)=C1C(=O)c2ccc(Cl)cc2C1=O [COR3773, Chloro-5 (méthylamino-1 éthylidène)-2 indanedione-1,3]			aucune mortalité	aucune mortalité						inhibition at 2 µg/mL (iléon de cobaye): 50%; inhibition de l'oedème ([10]; 200 mg/kg): 53%
COc1ccc(Cc2nccc3cc(OC)c(OC)cc23)cc1OC [papavérine, reference compound]										inhibition de ces contractions (iléon de cobaye): la même activité
CCCC(CCC)C(=O)O [valproate de sodium, reference compound]										inhibition des convulsions induites par la bicuculline (souris [12]; first bicuculline injection (30 min later)): inhibe les convulsions induites par la première injection; inhibition des convulsions induites par la bicuculline (souris [12]; second bicuculline injection (5 hours later)): sans inhiber celles induites par la deuxième
CC(NC(C)C)=C1C(=O)c2ccccc2C1=O [COR3792, (Isopropylamino-1 éthylidène)-2 indanedione-1,3]	100 (≈ 436 µM)		aucune mortalité	aucune mortalité	25 (≈ 109 µM)	100 (≈ 436 µM)	42	2,8	590	facteur multipliant l'excrétion sodique ([11]; 5 mg/kg): 3,3
